The values below come from publication PMC12136991 (ACS chemical neuroscience, 2025).

≈ marks a conversion by molar mass, not a printed value. A value given as a limit tells only on which side of the number the result lay.

The nature of series [1]: Multi-point microsome stability assay, human. It counts as in vitro ADME. Particulars: both, human microsomal fractions, pH 7.4.
Series [2] in a line: Multi-point cytosol stability assay, human. It counts as in vitro ADME. Conditions: human cytosol fractions, pH 7.4.
Series [3] can be described thus: Multi-point microsome stability assay, rat. Conditions: male, Sprague Dawley, rat microsomal fractions, pH 7.4. In kind it is in vitro ADME.
In series [4] the target is T1, human δ-opioid receptor (OPRD1) (Homo sapiens, UniProt P41143). The series can be described thus: Forskolin-induced cAMP accumulation assay, DOR agonist mode. Particulars: for Emax: read-out: DOR Agonist %Emax ± SEM.
Series [5] concerns the target human μ-opioid receptor (OPRM1) (Homo sapiens, UniProt P35372). Nature of the series: cell-based. Particulars: for Emax: OPRM1, read-out: MOR Agonist %Emax ± SEM.
The nature of series [6]: Multi-point microsome stability assay, mouse. Conditions: male, CD-1, mouse, mouse microsomal fractions, pH 7.4. In kind it is in vitro ADME.
The next series can be described thus: Kinetic solubility assay. It counts as physicochemical. Conditions: kinetic from dmso stock.
In series [7] the target is T1, human δ-opioid receptor (OPRD1). Nature of the series: Forskolin-induced cAMP accumulation assay, DOR antagonist mode. Conditions: for DOR Antagonist %Imax ± SEM: versus EC50 of SNC80, normalized to naltrexone.
Series [8] has as its target T2, human κ-opioid receptor (OPRK1) (Homo sapiens, UniProt P41145). Nature of the series: Forskolin-induced cAMP accumulation assay, KOR agonist mode. Particulars: for Emax: read-out: KOR Agonist %Emax ± SEM.
Series [9] is described as follows: Multi-point cytosol stability assay, rat. In kind it is in vitro ADME. Conditions: rat cytosol fractions, pH 7.4.
The nature of series [10]: Multi-point cytosol stability assay, mouse. In kind it is in vitro ADME. Conditions: mouse cytosol fractions, pH 7.4.
Series [11] is described as follows: Parallel artificial membrane permeability assay. In kind it is in vitro ADME.
Series [12] has as its target T2, human κ-opioid receptor (OPRK1). The series can be described thus: Forskolin-induced cAMP accumulation assay, KOR antagonist mode.

T1 sequence (P41143 whole entry): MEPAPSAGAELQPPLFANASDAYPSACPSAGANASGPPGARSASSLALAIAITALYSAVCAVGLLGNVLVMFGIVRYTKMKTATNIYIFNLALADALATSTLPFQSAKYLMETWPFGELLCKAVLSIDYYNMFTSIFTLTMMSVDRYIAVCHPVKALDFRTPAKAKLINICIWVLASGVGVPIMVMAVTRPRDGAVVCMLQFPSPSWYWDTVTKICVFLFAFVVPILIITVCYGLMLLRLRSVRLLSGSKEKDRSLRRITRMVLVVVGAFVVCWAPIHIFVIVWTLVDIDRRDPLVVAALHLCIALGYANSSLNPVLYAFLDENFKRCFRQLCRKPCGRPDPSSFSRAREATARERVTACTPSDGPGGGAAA
T2 sequence (P41145 whole entry): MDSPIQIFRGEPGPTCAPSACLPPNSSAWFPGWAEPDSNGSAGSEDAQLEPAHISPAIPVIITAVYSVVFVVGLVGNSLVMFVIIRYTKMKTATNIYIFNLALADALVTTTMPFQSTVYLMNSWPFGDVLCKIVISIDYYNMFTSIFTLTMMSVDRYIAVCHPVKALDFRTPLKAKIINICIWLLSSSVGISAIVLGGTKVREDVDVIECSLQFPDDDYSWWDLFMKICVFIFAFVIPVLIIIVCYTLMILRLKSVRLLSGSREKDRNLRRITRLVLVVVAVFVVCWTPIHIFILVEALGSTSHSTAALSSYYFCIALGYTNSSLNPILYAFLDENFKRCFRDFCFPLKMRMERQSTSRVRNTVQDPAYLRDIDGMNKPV
Chain of human μ-opioid receptor (OPRM1) (P35372 whole entry): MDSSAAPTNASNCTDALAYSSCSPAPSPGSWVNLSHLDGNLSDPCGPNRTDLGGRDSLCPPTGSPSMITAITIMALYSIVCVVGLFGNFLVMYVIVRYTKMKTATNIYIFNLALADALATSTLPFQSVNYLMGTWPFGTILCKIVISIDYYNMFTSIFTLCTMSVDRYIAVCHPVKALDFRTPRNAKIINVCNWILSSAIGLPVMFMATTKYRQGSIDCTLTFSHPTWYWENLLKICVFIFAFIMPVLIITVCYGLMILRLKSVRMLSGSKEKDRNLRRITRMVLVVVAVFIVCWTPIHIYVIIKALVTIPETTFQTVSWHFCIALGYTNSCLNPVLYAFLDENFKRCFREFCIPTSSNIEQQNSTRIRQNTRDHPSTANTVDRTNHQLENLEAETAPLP

In the case of `C=C[C@H]1C2CCCC1(c1cccc(O)c1)CCN2CCc1ccccc1[N+](=O)[O-]` (stereo in doubt) [compound 24, 3-((1S,SR,9R)-2-(2-Nitrophenethyl)-9-vinyl-2-azabicyclo[3.3.1]nonan-5-yl)phenol], the half-life at 1 μM was 5.02 min in series [1]; 112 min in series [2]; 0.41 min in series [3]; 1.22 min in series [6]; over 120 min in [9]; 102 min in series [10]. Further, the results for the EC50 in series [4], in series [5] and in series [8] were 0.954 ± 0.502 µM, 0.00255 µM and over 10 µM, respectively. In addition, the figures for the Emax in [4], in series [5] and in [8] were 35.9%, 92.6% and 0%, respectively. Besides, the kinetic solubility in “Kinetic solubility assay” is over 39 µg/mL. Further, inhibition in series [7] was half-maximal at 0.114 ± 0.0117 µM (IC50). For the same compound, in [7], the “DOR Antagonist %Imax ± SEM” value is on record as 63.5 ± 12.0%.
Regarding `C=C[C@H]1C2CCCC1(c1cccc(O)c1)CCN2CCc1cccc(O)c1` (stereo in doubt) [compound 25, 3-((1S,5R,9R)-2-(3-Hydroxyphenethyl)-9-vinyl-2-azabicyclo[3.3.1]nonan-5-yl)phenol], the half-life at 1 μM in series [1] is 27 min; in series [2], over 120 min; in [3], 9.65 min; in [6] it was 4.02 min; in [9], over 120 min; in [10], over 120 min. Also, the EC50 in series [4] is over 10 µM; in [5] it was 0.00093 µM; in series [8], over 10 µM. Moreover, the Emax was 0% in [4] and 89.7% in series [5]. Besides, in series [7], the half-maximal inhibitory concentration (IC50) is 0.107 ± 0.0124 µM. For the same compound, the “DOR Antagonist %Imax ± SEM” value in series [7] worked out at 138.7 ± 19.3%.
For `C=C[C@H]1[C@H]2CCC[C@]1(c1cccc(NC(C)=O)c1)CCN2CCc1ccccc1` [compound 3, N-(3-((1R,5S,9R)-2-Phenethyl-9-vinyl-2-azabicyclo[3.3.1]nonan-5-yl)phenyl)acetamide], the half-life at 1 μM is 21.3 min in series [1]; 78 min in [2]; 3 min in series [3]; 6.4 min in series [6]; 88.1 min in [9]; 22.9 min in [10]. The results for the EC50 in series [4], in series [5] and in series [8] were 0.303 ± 0.0407 µM, 0.00273 µM and 0.357 ± 0.109 µM, respectively. Besides, the Emax in series [4] is 56.6%; in series [5] it was 101%; in series [8], 45.5%. In addition, the solubility (kinetic) in “Kinetic solubility assay” amounted to 38 µg/mL (≈ 97.8 µM). In addition, in series [11] (PAMPA), the Papp amounted to 731 ×10⁻⁶ cm/s.
`C=C[C@@H]1[C@H]2CCC[C@]1(c1cccc(O)c1)CCN2C` [compound 10, 3-((1R,5S,9S)-2-Methyl-9-vinyl-2-azabicyclo[3.3.1]nonan-5-yl)phenol]: the half-life at 1 μM in [1] was over 120 min; in [2], over 120 min; in series [3], 50.8 min; in series [6], 72.1 min; in series [9] it was 116 min; in series [10], over 120 min. Further, the EC50 in [4], in [5] and in series [8] was over 10 µM each time. The compound further yielded a solubility (kinetic) in the series “Kinetic solubility assay” of over 25 µg/mL. The IC50 in series [12] and in series [7] was over 10 µM in each case.
Consider `C=C[C@H]1[C@H]2CCC[C@]1(c1cccc(O)c1)CCN2C` [compound 11, 3-((1R,5S,9R)-2-Methyl-9-vinyl-2-azabicyclo[3.3.1]nonan-5-yl)phenol], for which the half-life at 1 μM in [1] was 68.9 min; in [2] it was 97.9 min; in series [3] it was 62.6 min; in series [6], 21.8 min; in series [9], over 120 min; in series [10], 112 min. Besides, the EC50 in series [4], in [5] and in [8] was over 10 µM each time. Further, the solubility (kinetic) in the series “Kinetic solubility assay” was over 25 µg/mL. For the same compound, the IC50 in series [12] and in series [7] was over 10 µM throughout.
For `C=C[C@H]1[C@H]2CCC[C@]1(c1cccc(O)c1)CCN2CC1CC1` [compound 15, 3-((1R,5S,9R)-2-(Cyclopropylmethyl)-9-vinyl-2-azabicyclo[3.3.1]nonan-5-yl)phenol], the half-life at 1 μM was 8.7 min in series [1]; over 120 min in series [2]; 9.7 min in [3]; 2.7 min in series [6]; 108 min in series [9]; over 120 min in series [10]. For the same compound, the EC50 in series [4], in series [5] and in series [8] was over 10 µM throughout. The kinetic solubility in “Kinetic solubility assay” was over 29 µg/mL. The IC50 in series [7] was over 10 µM. In addition, in [11] (stirring double-sink PAMPA), the “PAMPA permeability Papp” value was >1000 10E-6 cm/s.
On to `C=C[C@H]1[C@H]2CCC[C@]1(c1cccc(O)c1)CCN2CCc1cccs1` [compound 16, 3-((1R,5S,9R)-2-(2-(Thiophen-2-yl)ethyl)-9-vinyl-2-azabicyclo[3.3.1]nonan-5-yl)phenol], for which the half-life at 1 μM in [1] is 8.21 min; in series [2] it was over 120 min; in series [3], 1.04 min; in series [6] it was 1.66 min; in [9], over 120 min; in series [10], over 120 min. Moreover, the EC50 was found to be 0.0132 ± 0.0068 µM in series [4] and 0.0008 µM in [5]. In addition, the Emax is 20% in [4] and 101% in [5]. In “Kinetic solubility assay”, this compound registered a solubility (kinetic) of over 35 µg/mL. This compound registered an IC50 in series [7] of 0.0598 ± 0.013 µM. Also, the “DOR Antagonist %Imax ± SEM” value in [7] worked out at 87.1 ± 13.9%.
On to `C=C[C@H]1[C@H]2CCC[C@]1(c1cccc(O)c1)CCN2CCc1ccc(F)cc1` [compound 19, 3-((1R,5S,9R)-2-(4-Fluorophenethyl)-9-vinyl-2-azabicyclo[3.3.1]nonan-5-yl)phenol], for which the half-life at 1 μM in [1] was 11.8 min; in series [2] it was over 120 min; in series [3], 7.6 min; in series [6], 5.26 min; in series [9] it was 79.4 min; in series [10] it was 108 min. Also, the values for the EC50 in series [4], in series [5] and in [8] were over 10 µM, 0.00333 µM and over 10 µM, respectively. In series [5], the Emax was 74.3%. This compound registered a kinetic solubility in the series “Kinetic solubility assay” of over 36 µg/mL. This compound also showed an IC50 in series [7] of 0.12 ± 0.0185 µM. Besides, in [7], the “DOR Antagonist %Imax ± SEM” value is recorded as 153.1 ± 15.3%.
Regarding `C=C[C@H]1[C@H]2CCC[C@]1(c1cccc(O)c1)CCN2CCc1ccc(O)cc1` [compound 20, 3-((1R,5S,9R)-2-(4-Hydroxyphenethyl)-9-vinyl-2-azabicyclo[3.3.1]nonan-5-yl)phenol], the half-life at 1 μM in series [1] was 88.1 min; in [2], over 120 min; in [3], 27.8 min; in [6], 12.5 min; in series [9] it was over 120 min; in series [10], over 120 min. In addition, the EC50 in [4] is over 10 µM; in [5], 0.00416 µM; in [8], over 10 µM. The Emax in series [5] was 54.8%. This compound had a solubility (kinetic) in the series “Kinetic solubility assay” of over 34 µg/mL. Besides, inhibition in [7] was half-maximal at 0.303 ± 0.0292 µM (IC50). In series [7], the “DOR Antagonist %Imax ± SEM” value is 163.6 ± 19.5%.
